What all share (format): functional
One assay relates to Klebsiella pneumoniae. Briefly: Antimicrobial activity against CTX-M ESBL producing isolate of Klebsiella pneumoniae at 30 ug by double-disk diffusion method. The settings on record: read-out: DIZ. On the technique in general: A growth-free zone around the sample is the usual read-out of agar diffusion tests.
Assay [1] concerns Escherichia coli. Kind of assay: Antimicrobial activity against CTX-M ESBL producing isolate of Escherichia coli at 30 ug by double-disk diffusion method. The settings on record: read-out: DIZ.
Assay [2] deals with Escherichia coli. Briefly: Antimicrobial activity against non-CTX-M ESBL producing isolate of Escherichia coli by double-disk diffusion method.
The test system of the next assay is Klebsiella oxytoca. Briefly: Antimicrobial activity against CTX-M ESBL producing isolate of Klebsiella oxytoca at 30 ug by double-disk diffusion method. The settings on record: read-out: DIZ.

These results are taken from ChEMBL document CHEMBL1137653, “First report of the emergence of CTX-M-type extended-spectrum beta-lactamases (ESBLs) as the predominant ESBL isolated in a U.S. health care system” (2007).

In the case of `CC(C)(O/N=C(\C(=O)N[C@@H]1C(=O)N2C(C(=O)[O-])=C(C[n+]3ccccc3)CS[C@H]12)c1csc(N)n1)C(=O)O` [CEFTAZIDIME], the zone of inhibition at 30 µg/disc in the assay on Klebsiella pneumoniae was found to be 9.8 mm; with Escherichia coli [1], 15.9 mm; in the assay with Klebsiella oxytoca it was 9.2 mm. Moreover, the “diameter of the inhibition zone (DIZ)” value in the assay with Escherichia coli [2] came out at 17.3 mm.
The matching figures for `CO/N=C(\C(=O)N[C@@H]1C(=O)N2C(C(=O)O)=C(COC(C)=O)CS[C@H]12)c1csc(N)n1` [CEFOTAXIME]: 10.8 mm, 8.8 mm, 16.8 mm and 21 mm.
